Data as given in the supplement of paper PMC10307832.

Assays:
Assay in all cases: relative viability (nuclei count vs DMSO), 5 days (fraction); higher = more cells survive
[1] = compound: CN(NC(=O)CC(=O)NN(C)C(=S)c1ccccc1)C(=S)c1ccccc1 [Elesclomol] + CS(=O)(=O)CCNCc1ccc(-c2ccc3ncnc(Nc4ccc(OCc5cccc(F)c5)c(Cl)c4)c3c2)o1 [Lapatinib] (partner 2 µM)
Summary of the method: (§1)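 Nuclei were stained with Hoechst during a one-step fixation (final 0.05% Triton X-100, 1% formaldehyde, 1 ug/ml Hoechst) carried out 5 days after dosing, then counted on 4× images. The cells, lung cancer lines in 1536-well plates, had been dosed by pin tool the day after seeding with one drug alone or a fixed anchor-drug dose plus five library-drug doses (not always all listed) in √10 steps. Relative viability is the nuclei count in treated wells divided by that in vehicle wells, and each value is the median of duplicate plates.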

[2] = compound: CN(NC(=O)CC(=O)NN(C)C(=S)c1ccccc1)C(=S)c1ccccc1 [Elesclomol] + Cc1nc(NC(=O)N2CCC[C@H]2C(N)=O)sc1-c1ccnc(C(C)(C)C(F)(F)F)c1 [Alpelisib] (partner 2 µM)
Summary of the method: as §1

[3] = compound: CN(NC(=O)CC(=O)NN(C)C(=S)c1ccccc1)C(=S)c1ccccc1 [Elesclomol] + Cc1nc(Nc2ncc(C(=O)Nc3c(C)cccc3Cl)s2)cc(N2CCN(CCO)CC2)n1 [Dasatinib] (partner 0.075 µM)
Summary of the method: as §1

[4] = compound: CN(NC(=O)CC(=O)NN(C)C(=S)c1ccccc1)C(=S)c1ccccc1 [Elesclomol] + N=C(N)NC(=N)NCCc1ccccc1 [Phenformin] (partner 250 µM)
Summary of the method: as §1

[5] = compound: CN(NC(=O)CC(=O)NN(C)C(=S)c1ccccc1)C(=S)c1ccccc1 [Elesclomol] + NC(=O)Nc1cc(-c2cccc(F)c2)sc1C(=O)N[C@H]1CCCNC1 [AZD7762] (partner 0.2 µM)
Summary of the method: as §1

| Cell Line | relative viability ([1]; first compound 0.003162 µM) | relative viability ([1]; first compound 0.01 µM) | relative viability ([1]; first compound 0.03162 µM) | relative viability ([1]; first compound 0.1 µM) | relative viability ([2]; first compound 0.003162 µM) | relative viability ([2]; first compound 0.01 µM) | relative viability ([2]; first compound 0.03162 µM) | relative viability ([2]; first compound 0.1 µM) | relative viability ([3]; first compound 0.003162 µM) | relative viability ([3]; first compound 0.01 µM) | relative viability ([3]; first compound 0.03162 µM) | relative viability ([3]; first compound 0.1 µM) | relative viability ([4]; first compound 0.003162 µM) | relative viability ([4]; first compound 0.01 µM) | relative viability ([4]; first compound 0.03162 µM) | relative viability ([4]; first compound 0.1 µM) | relative viability ([5]; first compound 0.01 µM) | relative viability ([5]; first compound 0.03162 µM) | relative viability ([5]; first compound 0.1 µM) | relative viability ([5]; first compound 0.003162 µM) |
| --- | --- | --- | --- | --- | --- | --- | --- | --- | --- | --- | --- | --- | --- | --- | --- | --- | --- | --- | --- | --- |
| LK-2 | 0.698 | 0.22 | 0.17 | 0.0799 | 0.843 | 0.254 | 0.137 | 0.107 | 0.275 | 0.367 | 0.23 | 0.105 | 0.438 | 0.389 | 0.353 | 0.141 | 0.37 | 0.279 | 0.0458 |  |
| LOU-NH91 | 0.733 | 0.669 | 0.574 | 0.478 | 0.717 | 0.643 | 0.513 | 0.498 | 0.546 | 0.52 | 0.428 | 0.432 | 0.754 | 0.571 | 0.419 | 0.439 | 0.726 | 0.563 | 0.471 | 0.769 |
| LU99A | 1.02 |  | 0.921 | 0.135 | 0.479 |  | 0.538 | 0.095 | 0.569 | 0.39 | 0.512 | 0.185 | 0.804 | 0.561 | 0.901 | 0.219 | 0.329 | 0.418 | 0.185 | 0.357 |
| LXF-289 | 0.925 | 0.881 | 0.876 | 0.677 | 1.05 | 0.977 | 0.979 | 0.686 | 0.243 | 0.176 | 0.202 | 0.113 | 0.516 | 0.406 | 0.487 | 0.467 | 1.04 | 0.974 | 0.509 | 1.01 |
| NCI-H23 | 1.12 |  | 0.799 | 0.139 | 0.662 |  | 0.491 | 0.122 | 0.823 | 0.725 | 0.743 | 0.171 | 0.822 | 0.671 | 0.77 | 0.506 | 0.164 | 0.176 | 0.108 | 0.29 |
| NCI-H322M | 0.563 |  | 0.624 | 0.399 | 0.933 |  | 0.645 | 0.173 | 0.251 | 0.206 | 0.123 | 0.0962 | 0.769 | 0.32 | 0.47 | 0.0999 | 0.411 | 0.259 | 0.161 | 0.484 |
| NCI-H358 | 0.272 | 0.244 | 0.209 | 0.184 | 0.43 | 0.163 | 0.166 | 0.142 | 0.0973 | 0.101 | 0.0734 | 0.0654 | 0.305 | 0.158 | 0.148 | 0.166 | 0.182 | 0.161 | 0.102 | 0.305 |
| NCI-H460 | 0.755 | 0.229 | 0.0103 | 0.0101 | 0.434 | 0.0761 | 0.0128 | 0.0117 | 0.516 | 0.422 | 0.0534 | 0.0171 | 0.439 | 0.0498 | 0.0181 | 0.0123 | 0.513 | 0.232 | 0.048 | 0.547 |
